Test results as given in patent US20090048295A1, “SUBSTITUTED 5,6,7,8-TETRAHYDROQUINOLINE DERIVATIVES, COMPOSITIONS, AND METHODS OF USE THEREOF” (priority 2007, published 2009).
Where “and” joins values, the source holds several entries; their conditions need not be identical. Equal entries are not always repeated.

How the values were obtained:
C5a receptor [1] = target: T1, C5a receptor (Homo sapiens, UniProt P21730); test: [125I]-C5a Radioligand Binding Assay (competition binding, differentiated U937 cells); details: for inhibition at 1 µM: read-out: [125I]-C5a Binding % Inhibition 1 μM, test compound 1 μM; for inhibition at 1 µM / inhibition at 10 µM / [125I]-C5a Binding % Inhibition 1 μM / [125I]-C5a Binding % Inhibition 10 μM: [125I]-C5a 0.05 nM, U937 cells, multiple values = duplicate experiments; for inhibition at 10 µM: read-out: [125I]-C5a Binding % Inhibition 10 μM, test compound 10 μM; for [125I]-C5a Binding % Inhibition 1 μM: test compound 1 μM; for [125I]-C5a Binding % Inhibition 10 μM: test compound 10 μM;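 as to all read-outs here: cells preincubated with compound 30 min at room temperature, then 60 min at 4 °C with radioligand, bound counts read by scintillation, nonspecific binding defined with 100 nM C5a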
T1 sequence (P21730 1-350): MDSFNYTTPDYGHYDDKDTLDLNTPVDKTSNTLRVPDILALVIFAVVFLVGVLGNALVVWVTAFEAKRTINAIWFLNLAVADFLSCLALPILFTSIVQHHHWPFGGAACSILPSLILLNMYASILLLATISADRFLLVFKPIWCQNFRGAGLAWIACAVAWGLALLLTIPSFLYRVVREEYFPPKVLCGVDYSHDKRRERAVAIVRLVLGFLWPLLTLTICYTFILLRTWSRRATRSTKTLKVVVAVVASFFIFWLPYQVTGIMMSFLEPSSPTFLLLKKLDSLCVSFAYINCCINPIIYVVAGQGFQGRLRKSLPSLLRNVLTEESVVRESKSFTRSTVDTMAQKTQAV

C5a receptor [2] = target: T1, C5a receptor; test: Calcium Mobilization Assay (C5a-induced Ca2+ mobilization, FLIPR, differentiated U937 cells); assay type: cell-based; set-up: endogenous in cells; host or cells: U937 cells differentiated with dibutyryl cAMP; details: […] recombinant human C5a, 20 min pre-incubation, multiple values = duplicate experiments, read-out: C5a Induced Ca Mobil. Average IC50
Procedure: U937 cells (human monocytic cell line) were cultured in RPMI-1640 medium supplemented with 10% fetal bovine serum, 10 mM HEPES, 0.11 g/L pyruvate, 0.29 g/L L-glutamine, 100 IU/mL penicillin G and […] streptomycin. Dibutyryl cAMP (1 mM) was added to induce differentiation 2 or 3 days prior to loading the cells with 4.4 μM Fluo-3AM (Molecular Probes) for 30 min at 37° C. in RPMI medium containing 20 mM HEPES, 0.1% bovine serum albumin (BSA) and 5 mM probenecid. After washing, cells were dissolved at 2×10^6 cells/ml in HBSS buffer (Invitrogen 14190-094) supplemented with 10 mM HEPES, 2.5 mM probenecid and 0.1% BSA (pH=7.4), and sedimented by 1 min centrifugation (1500 rpm) in black 96-well plates (Costar) (200,000 cells/well). A 100× concentration range of test compounds was prepared in DMSO and further diluted in HBSS buffer. U937 cells were pre-incubated with compound for 20 minutes at room temperature (1% DMSO), before recombinant human C5a (Sigma) was added to the cells (1.5 nM). Changes in intracellular free Ca^2+ concentration were measured using the Fluorescent Imaging Plate Reader (FLIPR, Molecular Devices). Fluorescence was recorded every second from 10 seconds before the addition of C5a until 2 min after the addition. The maximal fluorescence obtained during this time frame was used for further calculations.

CCOc1cc(-c2c(CC)cccc2CC)nc2c1C(N(CC)c1cccc3ccccc13)CCC2 (racemic) [Compound 8, (±)-[2-(2,6-Diethyl-Phenyl)-4-ethoxy-5,6,7,8-tetrahydro-quinolin-5-yl]-ethyl-naphthlen-1-yl-amine]
inhibition at 1 µM (C5a receptor [1]): 94%
inhibition at 10 µM (C5a receptor [1]): 96%
IC50 (C5a receptor [2]): 0.067 µM

CCc1cccc(CC)c1-c1cc(OC)c2c(n1)CCCC2N(CC)c1cccc2ccccc12 (racemic) [Compound 12, (±)-[2-(2,6-Diethyl-phenyl)-4-methoxy-5,6,7,8-tetrahydro-quinolin-5-yl]-ethyl-naphthlen-1-yl-amine]
inhibition at 1 µM (C5a receptor [1]): 94%
inhibition at 10 µM (C5a receptor [1]): 97%
[125I]-C5a Binding % Inhibition 1 μM (C5a receptor [1]): 88% and 98% and 101% and 100% and 81%
[125I]-C5a Binding % Inhibition 10 μM (C5a receptor [1]): 92% and 102, 102, % and 90%

CCc1cccc(CC)c1-c1cc(CC)c2c(n1)CCCC2Nc1cc(OC)ccc1C (racemic) [Compound 25, (±)-[2-(2,6-Diethyl-phenyl)-4-ethyl-5,6,7,8-tetrahydro-quinolin-5-yl]-(5-methoxy-2-methyl-phenyl)-amine]
IC50 (C5a receptor [2]): 0.244 µM

CCCC1(Nc2cc(OC)ccc2C)CCCc2nc(-c3c(CC)cccc3CC)cc(OC)c21 (racemic) [Compound 70, (±)-[2-(2,6-Diethyl-phenyl)-4-methoxy-5-propyl-5,6,7,8-tetrahydro-quinolin-5-yl]-(5-methoxy-2-methyl-phenyl)-amine]
IC50 (C5a receptor [2]): 3.47 µM

CCc1cccc(CC)c1-c1cc(OC(C)C)c2c(n1)CCCC2Nc1ccccc1CCO (stereo not shown) [Compound 1]
IC50 (C5a receptor [2]): 0.0073 µM

CCc1cccc(CC)c1-c1cc(OC)c2c(n1)CCCC2Nc1cc(C(F)(F)F)ccc1CO (stereo not shown) [Compound 2]
IC50 (C5a receptor [2]): 0.022 µM

CCc1cccc(CC)c1-c1cc(OC)c2c(n1)CCCC2Nc1cc(Cl)ccc1CO (stereo not shown) [Compound 3]
IC50 (C5a receptor [2]): 0.026 µM

CCc1cccc(CC)c1-c1cc(OC)c2c(n1)CCC[C@H]2N(CC)c1cccc2ccccc12 [Compound 4]
inhibition at 1 µM (C5a receptor [1]): 94%
inhibition at 10 µM (C5a receptor [1]): 95%
[125I]-C5a Binding % Inhibition 1 μM (C5a receptor [1]): 99%
[125I]-C5a Binding % Inhibition 10 μM (C5a receptor [1]): 101%

CCc1cccc(CC)c1-c1cc(OC)c2c(n1)CCCC2Nc1ccccc1CCO (stereo not shown) [Compound 5]
inhibition at 1 µM (C5a receptor [1]): 92%
inhibition at 10 µM (C5a receptor [1]): 97%
IC50 (C5a receptor [2]): 0.03 µM

CCc1cccc(CC)c1-c1cc(OC2CCCC2)c2c(n1)CCCC2N(CC)c1cccc2ccccc12 (stereo not shown) [Compound 6]
IC50 (C5a receptor [2]): 0.037 µM

CCc1cccc(CC)c1-c1cc(OC)c2c(n1)CCCC2Nc1ccc(F)cc1CO (stereo not shown) [Compound 7]
IC50 (C5a receptor [2]): 0.053 µM

CCc1cccc(CC)c1-c1cc(SC)c2c(n1)CCCC2N(CC)c1cccc2ccccc12 (stereo not shown) [Compound 10]
inhibition at 1 µM (C5a receptor [1]): 92%
inhibition at 10 µM (C5a receptor [1]): 94%
IC50 (C5a receptor [2]): 0.082 µM

CCN(c1cccc2ccccc12)C1CCCc2nc(-c3c(Cl)cccc3OC)cc(OC)c21 (stereo not shown) [Compound 13]
IC50 (C5a receptor [2]): 0.109 µM

CCc1cccc(CC)c1-c1cc(OC)c2c(n1)CCCC2Nc1ccccc1CO (stereo not shown) [Compound 15]
inhibition at 1 µM (C5a receptor [1]): 79%
inhibition at 10 µM (C5a receptor [1]): 90%
IC50 (C5a receptor [2]): 0.177 µM

CCN(c1cccc2ccccc12)C1CCCc2nc(-c3c(C)cccc3C)cc(OC)c21 (stereo not shown) [Compound 16]
inhibition at 1 µM (C5a receptor [1]): 88%
inhibition at 10 µM (C5a receptor [1]): 90%
IC50 (C5a receptor [2]): 0.133 µM

CCc1cccc(CC)c1-c1cc(OC2CCCC2)c2c(n1)CCCC2Nc1cc(OC)ccc1C (stereo not shown) [Compound 17]
IC50 (C5a receptor [2]): 0.134 µM

CCc1cccc(CC)c1-c1cc(OC(C)C)c2c(n1)CCCC2Nc1cc(OC)ccc1C (stereo not shown) [Compound 18]
IC50 (C5a receptor [2]): 0.137 µM

CCN(c1cccc2ccccc12)C1CCCc2nc(-c3c(C)cc(OC)cc3C)cc(OC)c21 (stereo not shown) [Compound 21]
inhibition at 1 µM (C5a receptor [1]): 91%
inhibition at 10 µM (C5a receptor [1]): 93%
IC50 (C5a receptor [2]): 0.169 µM

CCc1cccc(CC)c1-c1cc(CC)c2c(n1)CCCC2N(CC)c1cccc2ccccc12 (stereo not shown) [Compound 23]
IC50 (C5a receptor [2]): 0.191 µM

CCc1cccc(CC)c1-c1cc(OC)c2c(n1)CCCC2Nc1ccccc1C(=O)O (stereo not shown) [Compound 33]
IC50 (C5a receptor [2]): 0.414 µM

CCc1cccc(CC)c1-c1cc(OC)c2c(n1)CCCC2Nc1ccccc1C (stereo not shown) [Compound 46]
inhibition at 1 µM (C5a receptor [1]): 81%
inhibition at 10 µM (C5a receptor [1]): 87%

CCc1cccc(CC)c1-c1cc(OCCN(C)C)c2c(n1)CCCC2Nc1cc(OC)ccc1C (stereo not shown) [Compound 62]
IC50 (C5a receptor [2]): 2.32 µM

CCc1cccc(CC)c1-c1cc(OC)c2c(n1)CCCC2Oc1ccccc1CCO (stereo not shown) [Compound 64]
IC50 (C5a receptor [2]): 2.39 µM

CCc1cccc(CC)c1-c1cc(OC)c2c(n1)CCCC2Nc1cnccc1CO (stereo not shown) [Compound 71]
IC50 (C5a receptor [2]): 3.47 µM

CCc1cccc(CC)c1-c1cc(OC)c2c(n1)CCCC2Nc1ccccc1CN (stereo not shown) [Compound 75]
IC50 (C5a receptor [2]): 4.96 µM

CCc1cccc(CC)c1-c1cc(OC)c2c(n1)CCCC2N1CCc2ccc(OC)cc2C1 (stereo not shown) [Compound 100]
inhibition at 1 µM (C5a receptor [1]): 70%
inhibition at 10 µM (C5a receptor [1]): 82%

CCc1cccc(CC)c1-c1cc(OC)c2c(n1)CCCC2N1CCc2ccc(C(F)(F)F)cc2C1 (stereo not shown) [Compound 101]
inhibition at 1 µM (C5a receptor [1]): 75%
inhibition at 10 µM (C5a receptor [1]): 79%

CCc1cccc(CC)c1-c1cc(OC)c2c(n1)CCCC2Nc1cccc2ccccc12 (stereo not shown) [Compound 103]
[125I]-C5a Binding % Inhibition 1 μM (C5a receptor [1]): 48%
[125I]-C5a Binding % Inhibition 10 μM (C5a receptor [1]): 61%

CCN(c1cccc2ccccc12)C1CCCc2nc(-c3ccccc3-c3ccccc3)cc(OC)c21 (stereo not shown) [Compound 107]
inhibition at 1 µM (C5a receptor [1]): 76%
inhibition at 10 µM (C5a receptor [1]): 84%

COc1cc(-c2c(C)cccc2C)nc2c1C(N(C)c1c(C)cccc1C)CCC2 (stereo not shown) [Compound 114]
inhibition at 1 µM (C5a receptor [1]): 63%
inhibition at 10 µM (C5a receptor [1]): 73%

CCc1cccc(CC)c1-c1cc(OC)c2c(n1)CCCC2N(C)c1cccc2c(OC)cccc12 (stereo not shown) [Compound 118]
inhibition at 1 µM (C5a receptor [1]): 71%
inhibition at 10 µM (C5a receptor [1]): 77%

CCc1cccc(CC)c1-c1cc(OC)c2c(n1)CCCC2N(C)c1cc(-c2ccccc2)ccc1C (stereo not shown) [Compound 122]
inhibition at 1 µM (C5a receptor [1]): 81%
inhibition at 10 µM (C5a receptor [1]): 84%

CCc1cccc(CC)c1-c1cc(OC)c2c(n1)CCCC2N1CCc2cc(OC)c(OC)cc2C1 (stereo not shown) [Compound 127]
inhibition at 1 µM (C5a receptor [1]): -9%
inhibition at 10 µM (C5a receptor [1]): 42%

CCc1cccc(CC)c1-c1cc(OC)c2c(n1)CCCC2Nc1cccc2ccccc12 (stereo not shown) [Compound 132]
[125I]-C5a Binding % Inhibition 1 μM (C5a receptor [1]): 12%
[125I]-C5a Binding % Inhibition 10 μM (C5a receptor [1]): 34%

CCN(c1cccc2ccccc12)C1CCCc2nc(-c3ccsc3)cc(OC)c21 (stereo not shown) [Compound 134]
inhibition at 1 µM (C5a receptor [1]): -8%
inhibition at 10 µM (C5a receptor [1]): 40%

CCN(c1cccc2ccccc12)C1CCCc2nc(-c3cccnc3)cc(OC)c21 (stereo not shown) [Compound 136]
inhibition at 1 µM (C5a receptor [1]): 2%
inhibition at 10 µM (C5a receptor [1]): 35%

CCc1cccc(CC)c1-c1cc(OC)c2c(n1)CCCC2Oc1ccccc1CO (stereo not shown) [Compound 139]
IC50 (C5a receptor [2]): > 10 µM

CCc1cccc(CC)c1-c1cc(OC)c2c(n1)CCCC2(C)Nc1cc(OC)ccc1C (stereo not shown) [Compound 140]
IC50 (C5a receptor [2]): > 10 µM

CCc1cccc(CC)c1-c1cc(OC)c2c(n1)CCCC2Nc1ccc(CO)cc1C (stereo not shown) [Compound 141]
IC50 (C5a receptor [2]): > 10 µM

CCc1cccc(CC)c1-c1cc(OC)c2c(n1)CCCC2Nc1cccc(CO)c1 (stereo not shown) [Compound 142]
IC50 (C5a receptor [2]): > 10 µM

CCc1cccc(CC)c1-c1cc(OC)c2c(n1)CCCC2Oc1cc(OC)ccc1C=O (stereo not shown) [Compound 143]
IC50 (C5a receptor [2]): > 10 µM

CCc1cccc(CC)c1-c1cc(OC)c2c(n1)CCCC2NCc1ccccc1N (stereo not shown) [Compound 145]
IC50 (C5a receptor [2]): > 10 µM

CCc1cccc(CC)c1-c1cc(O)c2c(n1)CCCC2Nc1cc(O)ccc1C (stereo not shown) [Compound 146]
IC50 (C5a receptor [2]): > 10 µM

CCOC(=O)c1ccccc1OC1CCCc2nc(-c3c(CC)cccc3CC)cc(OC)c21 (stereo not shown) [Compound 150]
IC50 (C5a receptor [2]): > 10 µM

CCN(c1cccc2ccccc12)C1CCCc2nc(-c3c(C)noc3C)cc(OC)c21 (stereo not shown) [Compound 151]
IC50 (C5a receptor [2]): > 10 µM

B1: C5a: anaphylatoxin C5a, 74-amino acid N-terminal fragment of complement factor C5; recombinant human C5a (Sigma), radioligand [125I]-C5a (protein, UniProt P01031 678-751, looked up)
C5a anaphylatoxin: TLQKKIEEIAAKYKHSVVKKCCYDGACVNNDETCEQRAARISLGPRCIKAFTECCVVASQLRANISHKDMQLGR
modifications: C5a anaphylatoxin also 125I-labelled radioligand
Kd (C5a receptor [1]; read-out: C5a Kd, Kd of C5a used for the Ki calculation): 0.000324 µM
